Key:
[1] = system: CAL-51 (Breast Carcinoma); assay: combination Emax (second highest fraction inhibited in the dose matrix, 72 h); higher = more inhibition; extreme values may be limits of the assay
How it was run: (§1)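 After 24 hours at 37°C and 5% CO2 in 1536-well plates, cells in DMEM/F12 or RPMI plus 10% FBS received two-drug dose matrices for 72 hours. Viability came from CellTiter-Glo 2.0 luminescence and was scaled as inhibition, anchored at 0 by vehicle wells and at 1 by blank wells. Combination Emax is taken as the second-highest inhibition in the matrix, and Bliss excess as the observed combination effect less EA + EB − EA·EB, with EA and EB the single-agent effects.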

[2] = system: TE-4 (Esophageal Squamous Cell Carcinoma); assay: as above
How it was run: as §1

[3] = system: 639-V (Bladder Carcinoma); assay: as above
How it was run: as §1

[4] = system: HCC-15 (Squamous Cell Lung Carcinoma); assay: as above
How it was run: as §1

[5] = system: LB771-HNC (Head and Neck Carcinoma); assay: as above
How it was run: as §1

[6] = system: SW626 (Colorectal Carcinoma); assay: as above
How it was run: as §1

[7] = system: OVCAR-8 (Ovarian Carcinoma); assay: as above
How it was run: as §1

[8] = system: CAL-51 (Breast Carcinoma); assay: Bliss excess, mean over the matrix (fraction); higher = more synergy
How it was run: as §1

[9] = system: NCI-H747 (Colorectal Carcinoma); assay: as above
How it was run: as §1

[10] = system: CTB-1 (B-Cell Non-Hodgkin's Lymphoma); assay: as above
How it was run: as §1

[11] = system: KYSE-410 (Esophageal Squamous Cell Carcinoma); assay: as above
How it was run: as §1

[12] = system: TE-4 (Esophageal Squamous Cell Carcinoma); assay: as above
How it was run: as §1

[13] = system: MHH-PREB-1 (B-Cell Non-Hodgkin's Lymphoma); assay: as above
How it was run: as §1

COLO-829 (Melanoma) = assay: as above
How it was run: as §1

[14] = system: HCC-15 (Squamous Cell Lung Carcinoma); assay: as above
How it was run: as §1

[15] = system: LB771-HNC (Head and Neck Carcinoma); assay: as above
How it was run: as §1

[16] = system: UMC-11 (Other Solid Carcinomas); assay: as above
How it was run: as §1

[17] = system: SW626 (Colorectal Carcinoma); assay: as above
How it was run: as §1

[18] = system: KARPAS-231 (B-Cell Non-Hodgkin's Lymphoma); assay: as above
How it was run: as §1

[19] = system: OVCAR-8 (Ovarian Carcinoma); assay: as above
How it was run: as §1
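Throughout, for Bliss excess, mean over the matrix: after 72 h of two-drug dosing.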

CN(CCO)CC[C@H](CSc1ccccc1)Nc1ccc(S(=O)(=O)NC(=O)c2ccc(N3CCC([C@@H](O)c4ccccc4-c4ccc(Cl)cc4)CC3)cc2)cc1S(=O)(=O)C(F)(F)F [AZD4320] + C[C@@H](Nc1cc(F)cc(F)c1)c1cc(C(=O)N(C)C)cc2c(=O)cc(N3CCOCC3)oc12 [AZD8186] (first compound max 1 µM, 7x7, partner max 3 µM)
combination Emax [1]: 0.443
combination Emax [2]: 0.333
combination Emax [3]: 1
combination Emax [4]: 0.96
combination Emax [5]: 0.264
combination Emax [6]: 0.651
combination Emax [7]: 0.57
Bliss excess [8]: 0.0283
Bliss excess [9]: -0.0282
Bliss excess [10]: 0.0266
Bliss excess [11]: 0.0209
Bliss excess [12]: 0.0296
Bliss excess [13]: 0.0355
Bliss excess (COLO-829 (Melanoma)): 0.0015
Bliss excess [14]: 0.0764
Bliss excess [15]: 0.0095
Bliss excess [16]: -0.0356
Bliss excess [17]: -0.0203
Bliss excess [18]: 0.0269
Bliss excess [19]: 0.0245
